{"source": "PubChem BioAssay AID328", "about": "(DTP/NCI, 2004)", "tested_on": "BDF1 mice, P388 leukemia ip, median survival T/C", "test": "NCI In Vivo Anticancer Drug Screen. Data for tumor model P388 Leukemia (intraperitoneal) in B6D2F1 (BDF1) mice", "conditions": "endpoint: median survival time, higher = longer survival", "method_in_brief": "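Read-out is survival of treated animals expressed relative to the vehicle group, as a T/C ratio.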", "key": {"[1]": {"conditions": "dose: 50.0 mg/kg/injection, schedule: Q01DX009 (ip), vehicle: saline with Tween-80"}, "[2]": {"conditions": "dose: 100.0 mg/kg/injection, schedule: Q01DX009 (ip), vehicle: saline with Tween-80"}, "[3]": {"conditions": "dose: 200.0 mg/kg/injection, schedule: Q01DX009 (ip), vehicle: saline with Tween-80"}}, "note": "Values joined by “and” are separate entries in the source; they are usually repeats but may differ in a detail not shown here. Equal entries are not always repeated. Toxic doses and inconclusive results are not listed."}
{"compound": "C1CC[N-]CC1.C1CC[N-]CC1.O=C(O)C(=O)O.[Pt+2]", "values": [{"measurement": "T/C", "setting": "dose: 25.0 mg/kg/injection, schedule: Q01DX009 (ip), vehicle: saline", "value": "120 % of control"}, {"measurement": "T/C", "setting": "dose: 80.0 mg/kg/injection, schedule: Q01DX005 (ip), vehicle: Klucel (hydroxypropylcellulose) (HPC)", "value": "123 % of control"}, {"measurement": "T/C", "setting": "dose: 100.0 mg/kg/injection, schedule: Q01DX009 (ip), vehicle: saline", "value": "120 % of control"}, {"measurement": "T/C", "setting": "dose: 200.0 mg/kg/injection, schedule: Q01DX009 (ip), vehicle: saline", "value": "100 % of control"}, {"measurement": "T/C", "setting": "dose: 400.0 mg/kg/injection, schedule: Q04DX003 (ip), vehicle: saline", "value": "118 % of control"}]}
{"compound": "CCOC(=S)SCC(=O)Nc1ccc(S(N)(=O)=O)cc1", "values": [{"measurement": "T/C", "setting": "dose: 15.0 mg/kg/injection, schedule: Q01DX009 (ip), vehicle: saline with Tween-80", "value": "95 % of control"}, {"measurement": "T/C", "setting": "dose: 30.0 mg/kg/injection, schedule: Q01DX009 (ip), vehicle: saline with Tween-80", "value": "104 % of control"}, {"measurement": "T/C", "setting": "dose: 60.0 mg/kg/injection, schedule: Q01DX009 (ip), vehicle: saline with Tween-80", "value": "113 % of control"}]}
{"compound": "C=C1C(=O)O[C@@H]2[C@H]3O[C@]3(C)CCC=C(C)CC[C@@H]12", "values": [{"measurement": "T/C", "setting": "dose: 6.25 mg/kg/injection, schedule: Q01DX009 (ip), vehicle: alcohol", "value": "90 % of control"}, {"measurement": "T/C", "setting": "dose: 12.5 mg/kg/injection, schedule: Q01DX009 (ip), vehicle: alcohol", "value": "122 % of control"}, {"measurement": "T/C", "setting": "dose: 25.0 mg/kg/injection, schedule: Q01DX009 (ip), vehicle: alcohol", "value": "122 % of control"}, {"measurement": "T/C", "setting": "dose: 50.0 mg/kg/injection, schedule: Q01DX009 (ip), vehicle: alcohol", "value": "113 % of control"}]}
{"compound": "CCCC(=O)Nc1ccn(C2OC(COC(=O)CCC)C(OC(=O)CCC)C2OC(=O)CCC)c(=O)n1", "note": "(stereo not drawn)", "values": [{"measurement": "T/C", "setting": "dose: 6.25 mg/kg/injection, schedule: Q01DX009 (ip), vehicle: Klucel (hydroxypropylcellulose) (HPC)", "value": "91 % of control"}, {"measurement": "T/C", "setting": "dose: 12.5 mg/kg/injection, schedule: Q01DX009 (ip), vehicle: Klucel (hydroxypropylcellulose) (HPC)", "value": "100 % of control"}, {"measurement": "T/C", "setting": "dose: 25.0 mg/kg/injection, schedule: Q01DX009 (ip), vehicle: Klucel (hydroxypropylcellulose) (HPC)", "value": "87 % of control"}, {"measurement": "T/C", "setting": "dose: 50.0 mg/kg/injection, schedule: Q01DX009 (ip), vehicle: Klucel (hydroxypropylcellulose) (HPC)", "value": "104 % of control"}, {"measurement": "T/C", "setting": "dose: 100.0 mg/kg/injection, schedule: Q04DX003 (ip), vehicle: Klucel (hydroxypropylcellulose) (HPC)", "value": "100 % of control"}, {"measurement": "T/C", "setting": "dose: 200.0 mg/kg/injection, schedule: Q01DX009 (ip), vehicle: Klucel (hydroxypropylcellulose) (HPC)", "value": "165 % of control and 177 % of control"}, {"measurement": "T/C", "setting": "dose: 200.0 mg/kg/injection, schedule: Q04DX003 (ip), vehicle: Klucel (hydroxypropylcellulose) (HPC)", "value": "109 % of control"}, {"measurement": "T/C", "setting": "dose: 400.0 mg/kg/injection, schedule: Q01DX009 (ip), vehicle: Klucel (hydroxypropylcellulose) (HPC)", "value": "181 % of control and 190 % of control"}, {"measurement": "T/C", "setting": "dose: 400.0 mg/kg/injection, schedule: Q04DX003 (ip), vehicle: Klucel (hydroxypropylcellulose) (HPC)", "value": "122 % of control"}]}
{"compound": "CN(C)CCC(O)Cc1ccccc1", "note": "(stereo not drawn)", "values": [{"measurement": "T/C", "setting": "dose: 50.0 mg/kg/injection, schedule: Q04DX003 (ip), vehicle: acetone", "value": "100 % of control"}, {"measurement": "T/C", "setting": "dose: 100.0 mg/kg/injection, schedule: Q04DX003 (ip), vehicle: acetone", "value": "100 % of control"}, {"measurement": "T/C", "setting": "dose: 200.0 mg/kg/injection, schedule: Q04DX003 (ip), vehicle: acetone", "value": "105 % of control"}]}
{"compound": "O=[N+]([O-])c1ccc(/C=C/c2cc(N(CCO)CCO)c3ccccc3n2)cc1", "values": [{"measurement": "T/C", "setting": "[1]", "value": "94 % of control"}, {"measurement": "T/C", "setting": "[2]", "value": "99 % of control"}, {"measurement": "T/C", "setting": "[3]", "value": "100 % of control"}]}
{"compound": "CCCCCCCCCCCc1n(Cc2ccccc2)cc[n+]1C", "values": [{"measurement": "T/C", "setting": "dose: 0.75 mg/kg/injection, schedule: Q01DX009 (ip), vehicle: saline", "value": "117 % of control"}, {"measurement": "T/C", "setting": "dose: 1.5 mg/kg/injection, schedule: Q01DX009 (ip), vehicle: saline", "value": "114 % of control"}, {"measurement": "T/C", "setting": "dose: 1.5 mg/kg/injection, schedule: Q04DX003 (ip), vehicle: saline", "value": "100 % of control"}, {"measurement": "T/C", "setting": "dose: 3.0 mg/kg/injection, schedule: Q01DX009 (ip), vehicle: saline", "value": "114 % of control"}, {"measurement": "T/C", "setting": "dose: 3.0 mg/kg/injection, schedule: Q04DX003 (ip), vehicle: saline", "value": "115 % of control"}]}
{"compound": "OCC1CSC2(CCCCC2)N1", "note": "(stereo not drawn)", "values": [{"measurement": "T/C", "setting": "[1]", "value": "105 % of control"}, {"measurement": "T/C", "setting": "[2]", "value": "105 % of control"}, {"measurement": "T/C", "setting": "[3]", "value": "93 % of control"}]}
{"compound": "OCCN(CCO)c1cc(/C=C/c2ccnc3ccccc23)nc2ccccc12", "values": [{"measurement": "T/C", "setting": "[1]", "value": "89 % of control"}, {"measurement": "T/C", "setting": "[2]", "value": "89 % of control"}, {"measurement": "T/C", "setting": "[3]", "value": "91 % of control"}]}
